Here are results for 14 compounds from PubChem BioAssay (NCI).

Structures are written as SMILES.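 These data come from cells grown in 96-well plates and exposed to compound for 48 hours at five concentrations. Here, GI50 denotes the concentration required for 50% inhibition of growth. TGI denotes the concentration required for complete inhibition of growth.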 Some results are limits rather than exact numbers.

Test systems include K-562 leukemia; A498 renal; RPMI-8226 leukemia; OVCAR-5 ovarian; SNB-19 CNS; SK-MEL-2 melanoma; HOP-62 NSCLC; DU-145 prostate; MDA-N; CAKI-1 renal; SR leukemia.
Common to all, as to assay: NCI anticancer screen, dose series, 48 h

As for `COC(=O)C(C/C=C(\C)c1ccc(Cl)cc1)C(C)=O` (centres undefined), the TGI in the assay with K-562 leukemia was more than 100 µM; with A498 renal, more than 100 µM; in the assay with RPMI-8226 leukemia, more than 69 µM; in the assay on OVCAR-5 ovarian, more than 90.3 µM; in the assay on SNB-19 CNS, more than 100 µM; in the assay on SK-MEL-2 melanoma it was 32.9 µM. In the assay with HOP-62 NSCLC, this compound gave a TGI of more than 100 µM.
Take `COC(=O)C1=C(C)C=C(N2CCOCC2)C(C(=O)OC)C1c1ccccc1` (centres undefined): the TGI in the assay with K-562 leukemia, with A498 renal, in the assay on RPMI-8226 leukemia, in the assay with DU-145 prostate, in the assay on OVCAR-5 ovarian and in the assay with MDA-N was more than 10 µM each time. The TGI in the assay with SNB-19 CNS, in the assay on SK-MEL-2 melanoma, in the assay on CAKI-1 renal and in the assay with HOP-62 NSCLC was more than 10 µM each time.
For the compound `CN1CCN(Cc2ccc(NC(=O)c3cccc(C#Cc4cnc(N)c5ncccc45)c3F)cc2C(F)(F)F)CC1`, the GI50 in the assay with K-562 leukemia was 0.005 µM; with A498 renal, 1.59 µM; in the assay on RPMI-8226 leukemia, 2.28 µM; with DU-145 prostate it was 0.614 µM; with OVCAR-5 ovarian it was 0.722 µM; in the assay on SNB-19 CNS it was 1.41 µM. Moreover, the GI50 is 0.522 µM in the assay on SK-MEL-2 melanoma, 0.53 µM in the assay with CAKI-1 renal and 1.74 µM with HOP-62 NSCLC. The TGI with K-562 leukemia came to 0.733 µM; with A498 renal, 4.61 µM; with RPMI-8226 leukemia, 13.2 µM; with DU-145 prostate, 1.41 µM; in the assay on OVCAR-5 ovarian, 1.52 µM; with SNB-19 CNS it was 3.72 µM. In addition, the TGI in the assay with SK-MEL-2 melanoma turned out to be 1.94 µM; in the assay on CAKI-1 renal, 6.34 µM; in the assay on HOP-62 NSCLC, 8.71 µM.
Regarding `O=C(O)CC(Sc1ccccc1)c1ccccc1` (centres undefined), the TGI in the assay with K-562 leukemia, in the assay with A498 renal, with RPMI-8226 leukemia, with DU-145 prostate, with OVCAR-5 ovarian and in the assay on MDA-N was more than 100 µM throughout. The TGI in the assay with SNB-19 CNS, in the assay with SK-MEL-2 melanoma, in the assay on CAKI-1 renal and in the assay with HOP-62 NSCLC was more than 100 µM in each case.
In the case of `CC(C)(C)C1=CC(=C2C(=O)C(=O)c3ccccc3C2=O)C=C(C(C)(C)C)C1=O`, the TGI with K-562 leukemia was more than 100 µM; with A498 renal, 0.93 µM; in the assay on RPMI-8226 leukemia it was 86.9 µM; in the assay on OVCAR-5 ovarian it was more than 100 µM; in the assay with SNB-19 CNS, more than 100 µM; with SK-MEL-2 melanoma, more than 100 µM. Also, the TGI with CAKI-1 renal and in the assay on HOP-62 NSCLC was more than 100 µM throughout.
Turning to `CC(=O)NC(Cc1ccsc1)C(=O)O` (centres undefined), the TGI with K-562 leukemia, in the assay with A498 renal, in the assay with RPMI-8226 leukemia, in the assay on OVCAR-5 ovarian, with SNB-19 CNS and with SK-MEL-2 melanoma was more than 100 µM in each case. Moreover, the TGI with CAKI-1 renal and in the assay with HOP-62 NSCLC was more than 100 µM throughout.
Turning to `O=C(O)C12CCCCC1CCCC2` (centres undefined), the TGI in the assay on K-562 leukemia, with A498 renal, in the assay on RPMI-8226 leukemia, in the assay with OVCAR-5 ovarian, in the assay with SNB-19 CNS and in the assay on CAKI-1 renal was more than 100 µM each time. For the same compound, the TGI with HOP-62 NSCLC was more than 100 µM.
For the compound `Cc1cc(S(=O)(=O)/N=C(/[N-]S(=O)(=O)c2ccc(Cl)cc2)[n+]2ccc(N(C)C)cc2)c(SCC(=O)O)cc1Cl`, the TGI with K-562 leukemia, in the assay with A498 renal, with RPMI-8226 leukemia, in the assay on DU-145 prostate, with OVCAR-5 ovarian and in the assay on SR leukemia was more than 100 µM in each case. Further, the figures for the TGI in the assay with SNB-19 CNS, in the assay with CAKI-1 renal and in the assay on HOP-62 NSCLC were more than 100 µM, more than 100 µM and 46.2 µM, respectively.
With `CCOP(=O)(OCC)/C(C#N)=C/c1cnc[nH]1`, the TGI with K-562 leukemia, in the assay on A498 renal, with RPMI-8226 leukemia, in the assay with DU-145 prostate, in the assay on OVCAR-5 ovarian and with SR leukemia was more than 100 µM each time. Also, the TGI in the assay on SNB-19 CNS, with SK-MEL-2 melanoma, with CAKI-1 renal and in the assay on HOP-62 NSCLC was more than 100 µM in each case.
`Cc1cccc(-c2cc(=O)c3c(C)cc(C)nc3[nH]2)c1`: the TGI in the assay on K-562 leukemia is 32.3 µM; in the assay on A498 renal it was 29.3 µM; with RPMI-8226 leukemia it was more than 52.1 µM; in the assay with DU-145 prostate, more than 100 µM; in the assay on OVCAR-5 ovarian it was more than 100 µM; in the assay with SR leukemia, 9.3 µM. The TGI in the assay with SNB-19 CNS, in the assay on SK-MEL-2 melanoma, with CAKI-1 renal and in the assay with HOP-62 NSCLC was more than 100 µM each time.
Regarding `COc1cc(C2C(Cl)C(=O)N2NC(=O)c2ccc(N)cc2)cc(Br)c1O` (centres undefined), the TGI with K-562 leukemia turned out to be 48.7 µM; with A498 renal, 59 µM; with RPMI-8226 leukemia it was 51.5 µM; in the assay with OVCAR-5 ovarian it was 38.8 µM; in the assay on SNB-19 CNS, 24 µM; in the assay with SK-MEL-2 melanoma, 32.3 µM. Further, the TGI in the assay with CAKI-1 renal turned out to be 30.7 µM; with HOP-62 NSCLC, 28.9 µM.
Turning to `O=Cc1ccc(CCl)cc1`, the TGI in the assay on K-562 leukemia is more than 100 µM; in the assay on A498 renal, 85.8 µM; in the assay with OVCAR-5 ovarian it was 38.8 µM; in the assay with SR leukemia, more than 100 µM; in the assay with SNB-19 CNS, 29.4 µM; in the assay with SK-MEL-2 melanoma it was 32.2 µM.
For `Cc1c2ccncc2c(C)c2c1[nH]c1ccc(OCC(F)(F)F)cc12`, the TGI was 3.91 µM in the assay with K-562 leukemia; 5.32 µM with RPMI-8226 leukemia; 2.86 µM in the assay on OVCAR-5 ovarian; 4.2 µM with SR leukemia; 3.03 µM in the assay with SNB-19 CNS; 3.19 µM in the assay on SK-MEL-2 melanoma. The values for the TGI with CAKI-1 renal and in the assay with HOP-62 NSCLC were 3.66 µM and 3.03 µM, respectively.
As for `COP(=O)(OC)C(O)CC(C)C` (centres undefined), the TGI with K-562 leukemia, in the assay with A498 renal, with RPMI-8226 leukemia, with DU-145 prostate, in the assay with OVCAR-5 ovarian and in the assay on MDA-N was more than 100 µM in each case. In addition, the TGI in the assay with SNB-19 CNS, in the assay with SK-MEL-2 melanoma, in the assay on CAKI-1 renal and in the assay on HOP-62 NSCLC was more than 100 µM in each case.
